Measurements from patent publication US20220257569A1, “INDOLE-OXADIAZOLE COMPOUNDS AND THEIR THERAPEUTIC USE” (THE GOVERNING COUNCIL OF THE UNIVERSITY OF TORONTO, priority 2018, published 2022).

Tested on: DATKO mice
Assay: Open field test in DATKO mice and WT littermates
Type: in vivo
Details: 10 mg/kg; for Locomotor Activity (total distance traveled) / Stereotypy (total stereotypic movements) / Vertical Activity (total): mean±SEM
Text: DAT1/SLC6A3 gene polymorphism associations have been identified in various psychiatric disorders, including ADHD, BD and SCZ. Also, in line with reduced functioning of the dopamine transporter (DAT) in BD patients, mice without functioning DAT display behavioural abnormalities that model mania observed in BD and that mimic positive symptoms in SCZ. These mice are accepted as a model for assessing the effects of novel small molecules that may have utility in modulating the dopamine dysfunction; deficits respond to both lithium and antipsychotics (Beaulieu et al., 2004; Gainetdinov et al., 1999; Ralph et al., 2001).
Adult (>P70) GluN1-knockdown (GluN1KD—F1: C571Bl/6J x 129S1/SvlmJ) and DAT-knockout (DATKO—C57Bl/6J), balanced for sex, were treated with either vehicle (1:1:18-Tween80:95% ethanol:saline) or a novel CB1 negative allosteric modulator (CB1 NAM), ABM300, at 10 mg/kg, was tested in behavioural assays, and compared to littermate controls. Locomotor, stereotypic movements and vertical activity were tested, along with anxiety/mania and sensorimotor gating behaviours. All data were analyzed with two- or three-way ANOVA, as appropriate, and corrected for multiple comparisons.
Classically, locomotor output has been used as a gold standard for the measure of dopamine system dysfunction. The role of dopamine in movement control is well defined and, in its simplest forms, testing for hyperactivity is based on the premise that enhanced dopaminergic activity in rodents leads to enhanced motor activity (van den Buuse et al., 2010). Locomotor, stereotypic and vertical activity was recorded using digital activity monitors, quantifying horizontal and vertical activity, along with repetitive behaviour, via infrared beam breaks. GluN1 KD and DATKO display basal hyperactivity, with increases in stereotypic behaviours which can be ameliorated with antipsychotics (Peleg-Raibstein et al., 2008).

## CCc1c(-c2nnc(Nc3ccccc3)o2)[nH]c2ccc(Cl)cc12 [ABM300, 5-(5-Chloro-3-ethyl-1H-indol-2-yl)-N-phenyl-1,3,4-oxadiazol-2-amine]
DATKO mice
  effect on hyperactivity (in words): reduces hyperactivity
DATKO mice, open field
  effect on abnormal stereotypic behaviours (in words): reduces abnormal stereotypic behaviours
  effect on abnormal vertical exploration (risk-taking behaviour) (in words): reduces abnormal vertical exploration
  Locomotor Activity (total distance traveled): 13120 ± 1961 cm
  Stereotypy (total stereotypic movements): 900 ± 96
  Vertical Activity (total): 530 ± 101
WT (C57Bl/6J) mice, open field
  Locomotor Activity (total distance traveled): 1851 ± 378 cm
  Stereotypy (total stereotypic movements): 533 ± 69
  Vertical Activity (total): 262 ± 69
